According to ChEMBL document CHEMBL3792297, “Studies on phenothiazines: New microtubule-interacting compounds with phenothiazine A-ring as potent antineoplastic agents” (Bioorg Med Chem, 2016):

Experiments:
Ovis aries = organism: Ovis aries; assay: Inhibition of sheep brain tubulin polymerization at 100 uM by DAPI staining-based fluorimetric method
[1] = Inhibition of sheep brain tubulin polymerization by DAPI staining-based fluorimetric method; parameters: species or system Ovis aries
[2] = Inhibition of sheep brain tubulin polymerization preincubated for 1 hr measured after 30 mins by turbidimetric-spectrophotometric method; parameters: species or system Ovis aries
A498 = assay: Growth inhibition of human A498 cells after 48 hrs by SRB assay; format: functional; conditions: A498, 48 h
[3] = Growth inhibition of human DU145 cells after 48 hrs by SRB assay; format: functional; conditions: DU-145, 48 h
Tubulin = Tubulin (Bos taurus, UniProt Q6B856+Q862L2+Q862F3); assay: Inhibition of bovine tubulin polymerization preincubated for 30 mins followed by GTP addition measured after 20 mins by spectrophotometric method; format: protein assay
[4] = Growth inhibition of human SF295 cells after 48 hrs by SRB assay; format: functional; conditions: SF-295, 48 h
[5] = Growth inhibition of human OVCAR3 cells after 48 hrs by SRB assay; format: functional; conditions: OVCAR-3, 48 h

| inhibition (Ovis aries) [%] | IC50 [1] [nM] | Compound | other results |
| --- | --- | --- | --- |
| 95 | 9500 | COc1ccc(C(=O)N2c3ccccc3Sc3ccccc32)cc1N | – |
| 14 | – | COc1ccc(C(=S)N2c3ccccc3Sc3ccccc32)cc1F | – |
| 48 | – | O=C(c1ccc(OC(F)(F)F)c(F)c1)N1c2ccccc2Sc2ccccc21 | – |
| – | – | C=C(c1ccc(OC)c(O)c1)c1cc(OC)c(OC)c(OC)c1 | IC50 [2]: 1500 nM |
| 44 | – | O=C(c1ccc(F)cc1Cl)N1c2ccccc2Sc2ccccc21 | – |
| 99 | 3400 | COc1ccc(C(=O)c2cc(OC)c(OC)c(OC)c2)cc1O [PHENSTATIN] | GI50 (A498): 380 nM; GI50 [3]: 34 nM; IC50 (Tubulin): 1000 nM; GI50 [4]: 52 nM; GI50 [5]: 2.3 nM |
| 43 | – | Cc1cc(C(=O)N2c3ccccc3Sc3ccccc32)ccc1Br | – |
| 10 | – | S=C(c1ccc2c(c1)Sc1ccccc1N2)c1c[nH]c2ccccc12 | – |

| Compound | inhibition (Ovis aries) [%] | IC50 [1] [nM] | other results |
| --- | --- | --- | --- |
| COc1cc([C@@H]2c3cc4c(cc3C[C@H]3COC(=O)[C@@H]32)OCO4)cc(OC)c1OC [DESOXYPODOPHYLLOTOXIN] | 100 | 1800 | – |
